# Results reported in ChEMBL document CHEMBL4184222, “A multifaceted approach to identify non-specific enzyme inhibition: Application to Mycobacterium tuberculosis shikimate kinase” (Bioorg Med Chem Lett, 2018).
# Columns and labels:
# [1] = test system: Mycobacterium tuberculosis; assay: Inhibition of Mycobacterium tuberculosis shikimate kinase assessed as reduction in S3P production at <50 uM pre-incubated for 30 mins before ATP and shikimate substrate addition by LC-MS assay
# [2] = test system: Mycobacterium tuberculosis; assay: Inhibition of Mycobacterium tuberculosis shikimate kinase assessed as reduction in S3P production at 100 uM pre-incubated with 0.02 uM enzyme for 30 mins before ATP and shikimate substrate addition in absence of Triton X-100 by LC-MS assay
# [3] = test system: Mycobacterium tuberculosis; assay: Inhibition of Mycobacterium tuberculosis shikimate kinase assessed as reduction in S3P production at 100 uM pre-incubated with 0.02 uM enzyme for 30 mins before ATP and shikimate substrate addition in presence of Triton X-100 by LC-MS assay
# [4] = test system: Mycobacterium tuberculosis; assay: Inhibition of Mycobacterium tuberculosis shikimate kinase assessed as reduction in S3P production at 100 uM pre-incubated with 0.2 uM enzyme for 30 mins before ATP and shikimate substrate addition in absence of Triton X-100 by LC-MS assay
# [5] = test system: Mycobacterium tuberculosis; assay: Inhibition of Mycobacterium tuberculosis shikimate kinase assessed as reduction in S3P production at 100 uM pre-incubated with 0.2 uM enzyme for 30 mins before ATP and shikimate substrate addition in presence of Triton X-100 by LC-MS assay
# [6] = Inhibition of Mycobacterium tuberculosis shikimate kinase assessed as reduction in S3P production […] pre-incubated with 0.015 uM enzyme for 30 mins before ATP and shikimate substrate addition by LC-MS assay
# [7] = test system: Mycobacterium tuberculosis; assay: Antimycobacterial activity against Mycobacterium tuberculosis H37Rv; type: functional
# [8] = Aggregation property of the compound in ammonium acetate buffer at pH 7.6 assessed as light scattering intensity counts at 100 uM in absence of Triton X-100 by dynamic light scattering method; type: physicochemical; conditions: pH 7.6, 100 µM
# [9] = Aggregation property of the compound in ammonium acetate buffer at pH 7.6 assessed as particle size at 100 uM in absence of Triton X-100 by dynamic light scattering method; type: physicochemical; conditions: pH 7.6, 100 µM
# [10] = Aggregation property of the compound in ammonium acetate buffer at pH 7.6 assessed as light scattering intensity counts at 100 uM in presence of Triton X-100 by dynamic light scattering method; type: physicochemical; conditions: pH 7.6, 100 µM
# [11] = Aggregation property of the compound in ammonium acetate buffer at pH 7.6 assessed as particle size at 100 uM in presence of Triton X-100 by dynamic light scattering method; type: physicochemical; conditions: pH 7.6, 100 µM
# [12] = Aggregation property of the compound in water at pH 7 assessed as particle size at 100 uM in presence of Triton X-100 by dynamic light scattering method; type: physicochemical; conditions: buffer, pH 7, 100 µM
# [13] = Aggregation property of the compound in water at pH 7 assessed as light scattering intensity counts at 100 uM in presence of Triton X-100 by dynamic light scattering method; type: physicochemical; conditions: buffer, pH 7, 100 µM
# [14] = Aggregation property of the compound in water at pH 7 assessed as particle size at 100 uM in absence of Triton X-100 by dynamic light scattering method; type: physicochemical; conditions: buffer, pH 7, 100 µM
# [15] = Aggregation property of the compound in water at pH 7 assessed as light scattering intensity counts at 100 uM in absence of Triton X-100 by dynamic light scattering method; type: physicochemical; conditions: buffer, pH 7, 100 µM
# [16] = Aggregation property of the compound in ammonium acetate buffer at pH 7.6 assessed as particle size at 100 uM in absence of Triton X-100 by transmission electron microscopy; type: physicochemical; conditions: pH 7.6, 100 µM
# [17] = Aggregation property of the compound in ammonium acetate buffer at pH 7.6 assessed as particle size at 100 uM in presence of Triton X-100 by transmission electron microscopy; type: physicochemical; conditions: pH 7.6, 100 µM
# [18] = test system: Mycobacterium tuberculosis; assay: Inhibition of Mycobacterium tuberculosis shikimate kinase assessed as reduction in S3P production at 30 uM pre-incubated with 0.02 uM enzyme for 30 mins before ATP and shikimate substrate addition in absence of Triton X-100 by LC-MS assay
# [19] = test system: Mycobacterium tuberculosis; assay: Inhibition of Mycobacterium tuberculosis shikimate kinase assessed as reduction in S3P production at 30 uM pre-incubated with 0.02 uM enzyme for 30 mins before ATP and shikimate substrate addition in presence of Triton X-100 by LC-MS assay
# [20] = test system: Mycobacterium tuberculosis; assay: Inhibition of Mycobacterium tuberculosis shikimate kinase assessed as reduction in S3P production at 30 uM pre-incubated with 0.2 uM enzyme for 30 mins before ATP and shikimate substrate addition in absence of Triton X-100 by LC-MS assay
# [21] = test system: Mycobacterium tuberculosis; assay: Inhibition of Mycobacterium tuberculosis shikimate kinase assessed as reduction in S3P production at 30 uM pre-incubated with 0.2 uM enzyme for 30 mins before ATP and shikimate substrate addition in presence of Triton X-100 by LC-MS assay
# [22] = Aggregation property of the compound in ammonium acetate buffer at pH 7.6 assessed as light scattering intensity counts at 30 uM in absence of Triton X-100 by dynamic light scattering method; type: physicochemical; conditions: pH 7.6, 30 µM
# [23] = Aggregation property of the compound in ammonium acetate buffer at pH 7.6 assessed as light scattering intensity counts at 10 uM in absence of Triton X-100 by dynamic light scattering method; type: physicochemical; conditions: pH 7.6, 10 µM
# [24] = Aggregation property of the compound in ammonium acetate buffer at pH 7.6 assessed as light scattering intensity counts at 3 uM in absence of Triton X-100 by dynamic light scattering method; type: physicochemical; conditions: pH 7.6, 3 µM
# [25] = Aggregation property of the compound in ammonium acetate buffer at pH 7.6 assessed as particle size at 30 uM in absence of Triton X-100 by dynamic light scattering method; type: physicochemical; conditions: pH 7.6, 30 µM
# [26] = Aggregation property of the compound in ammonium acetate buffer at pH 7.6 assessed as particle size at 10 uM in absence of Triton X-100 by dynamic light scattering method; type: physicochemical; conditions: pH 7.6, 10 µM
# [27] = Aggregation property of the compound in ammonium acetate buffer at pH 7.6 assessed as particle size at 3 uM in absence of Triton X-100 by dynamic light scattering method; type: physicochemical; conditions: pH 7.6, 3 µM
# [28] = Aggregation property of the compound in ammonium acetate buffer at pH 7.6 assessed as light scattering intensity counts at 30 uM in presence of Triton X-100 by dynamic light scattering method; type: physicochemical; conditions: pH 7.6, 30 µM
# [29] = Aggregation property of the compound in ammonium acetate buffer at pH 7.6 assessed as light scattering intensity counts at 10 uM in presence of Triton X-100 by dynamic light scattering method; type: physicochemical; conditions: pH 7.6, 10 µM
# [30] = Aggregation property of the compound in ammonium acetate buffer at pH 7.6 assessed as light scattering intensity counts at 3 uM in presence of Triton X-100 by dynamic light scattering method; type: physicochemical; conditions: pH 7.6, 3 µM
# [31] = Aggregation property of the compound in ammonium acetate buffer at pH 7.6 assessed as particle size at 30 uM in presence of Triton X-100 by dynamic light scattering method; type: physicochemical; conditions: pH 7.6, 30 µM
# [32] = Aggregation property of the compound in ammonium acetate buffer at pH 7.6 assessed as particle size at 10 uM in presence of Triton X-100 by dynamic light scattering method; type: physicochemical; conditions: pH 7.6, 10 µM
# [33] = Aggregation property of the compound in ammonium acetate buffer at pH 7.6 assessed as particle size at 3 uM in presence of Triton X-100 by dynamic light scattering method; type: physicochemical; conditions: pH 7.6, 3 µM
# [34] = Aggregation property of the compound in water at pH 7 assessed as light scattering intensity counts at 10 uM in absence of Triton X-100 by dynamic light scattering method; type: physicochemical; conditions: buffer, pH 7, 10 µM
# [35] = Aggregation property of the compound in water at pH 7 assessed as light scattering intensity counts at 30 uM in absence of Triton X-100 by dynamic light scattering method; type: physicochemical; conditions: buffer, pH 7, 30 µM
# [36] = Aggregation property of the compound in water at pH 7 assessed as light scattering intensity counts at 3 uM in absence of Triton X-100 by dynamic light scattering method; type: physicochemical; conditions: buffer, pH 7, 3 µM
# [37] = Aggregation property of the compound in water at pH 7 assessed as particle size at 30 uM in absence of Triton X-100 by dynamic light scattering method; type: physicochemical; conditions: buffer, pH 7, 30 µM
# [38] = Aggregation property of the compound in water at pH 7 assessed as particle size at 10 uM in absence of Triton X-100 by dynamic light scattering method; type: physicochemical; conditions: buffer, pH 7, 10 µM
# [39] = Aggregation property of the compound in water at pH 7 assessed as particle size at 3 uM in absence of Triton X-100 by dynamic light scattering method; type: physicochemical; conditions: buffer, pH 7, 3 µM
# [40] = Aggregation property of the compound in water at pH 7 assessed as light scattering intensity counts at 30 uM in presence of Triton X-100 by dynamic light scattering method; type: physicochemical; conditions: buffer, pH 7, 30 µM
# [41] = Aggregation property of the compound in water at pH 7 assessed as light scattering intensity counts at 10 uM in presence of Triton X-100 by dynamic light scattering method; type: physicochemical; conditions: buffer, pH 7, 10 µM
# [42] = Aggregation property of the compound in water at pH 7 assessed as light scattering intensity counts at 3 uM in presence of Triton X-100 by dynamic light scattering method; type: physicochemical; conditions: buffer, pH 7, 3 µM
# [43] = Aggregation property of the compound in water at pH 7 assessed as particle size at 30 uM in presence of Triton X-100 by dynamic light scattering method; type: physicochemical; conditions: buffer, pH 7, 30 µM
# [44] = Aggregation property of the compound in water at pH 7 assessed as particle size at 10 uM in presence of Triton X-100 by dynamic light scattering method; type: physicochemical; conditions: buffer, pH 7, 10 µM
# [45] = Aggregation property of the compound in water at pH 7 assessed as particle size at 3 uM in presence of Triton X-100 by dynamic light scattering method; type: physicochemical; conditions: buffer, pH 7, 3 µM
# [46] = Aggregation property of the compound in ammonium acetate buffer at pH 7.6 assessed as particle size at 30 uM in absence of Triton X-100 by transmission electron microscopy; type: physicochemical; conditions: pH 7.6, 30 µM
# [47] = Aggregation property of the compound in ammonium acetate buffer at pH 7.6 assessed as particle size at 30 uM in presence of Triton X-100 by transmission electron microscopy; type: physicochemical; conditions: pH 7.6, 30 µM
# [48] = Aggregation property of the compound in potassium phosphate buffer at pH 7.2 assessed as micelle formation by measuring peal broadening at 12.5 to 200 uM by one-dimensional 1H-NMR spectroscopy; type: physicochemical; conditions: pH 7.2, 200 µM
structure (smiles),measurement,setting,value
CSc1ccc2nc(Nc3nc4ccc(NC(C)=O)cc4s3)sc2c1,inhibition,[1],> 90%
same,inhibition,[2],97.4%
same,inhibition,[3],0%
same,inhibition,[4],0%
same,inhibition,[5],0%
same,IC50,[6],60.6 µM
same,IC90,[7],< 0.2 µg/mL
same,Activity,[8],285 kCounts
same,Activity,[9],1531 nm
same,Activity,[10],122 kCounts
same,Activity,[11],271 nm
same,Activity,[12],275 nm
same,Activity,[13],115 kCounts
same,Activity,[14],1438 nm
same,Activity,[15],270 kCounts
same,Activity,[16],0.7 um
same,Activity,[17],0.03 um
COc1cc(C=O)ccc1OCc1ccccc1COc1ccc(/C=C2/SC(=S)NC2=O)cc1OC,inhibition,[18],96%
same,inhibition,[19],98%
same,inhibition,[20],55%
same,inhibition,[21],83%
same,IC50,[6],10.1 µM
same,Activity,[22],30 kCounts
same,Activity,[23],4 kCounts
same,Activity,[24],0 Counts
same,Activity,[25],80 nm
same,Activity,[26],0 nm
same,Activity,[27],0 nm
same,Activity,[28],5 kCounts
same,Activity,[29],4 kCounts
same,Activity,[30],0 kCounts
same,Activity,[31],0 nm
same,Activity,[32],0 nm
same,Activity,[33],0 nm
same,Activity,[34],2 kCounts
same,Activity,[35],30 kCounts
same,Activity,[36],0 kCounts
same,Activity,[37],80 nm
same,Activity,[38],0 nm
same,Activity,[39],0 nm
same,Activity,[40],5 kCounts
same,Activity,[41],2 kCounts
same,Activity,[42],0 kCounts
same,Activity,[43],0 nm
same,Activity,[44],0 nm
same,Activity,[45],0 nm
same,Activity,[46],100 nm
same,Activity,[47],5 nm
Nc1nc2ccc(OC(F)(F)F)cc2s1 [RILUZOLE],Activity,[48],Not Active
O=C(Nc1nnc(-c2ccccc2Cl)o1)c1cccc(Oc2ccccc2)c1,inhibition,[1],> 90%
same,inhibition,[2],90%
same,inhibition,[3],0%
same,inhibition,[4],0%
same,inhibition,[5],0%
same,IC50,[6],38.7 µM
same,IC90,[7],0.86 µg/mL
same,Activity,[8],350 kCounts
same,Activity,[9],2850 nm
same,Activity,[10],180 kCounts
same,Activity,[11],516 nm
same,Activity,[12],481 nm
same,Activity,[13],170 kCounts
same,Activity,[14],2423 nm
same,Activity,[15],330 kCounts
